Measurements reported in US6809119B2, “Branched chain amino acid-dependent aminotransferase inhibitors and their use in the treatment of neurodegenerative diseases” (Warner-Lambert Company LLC, priority 2001, dated 2004).

How the values were obtained:
[1] = target: T1, human Branched Chain Amino Acid Aminotransferase cytosolic form (hBCATc) (Homo sapiens, UniProt P54687); experiment: In vitro coupled enzyme assay, human BCAT cytosolic form; assay type: biochemical; details: inhibition of recombinant human BCATc; coupled glutamate dehydrogenase/NADH assay, 37° C., pH 7.8; read-out: rhBCATc
T1 construct: inferred from purification on a Ni-charged chelating column with imidazole elution; made in house; host or cells: E. coli BL21(DE3)
T1 sequence (P54687 1-386): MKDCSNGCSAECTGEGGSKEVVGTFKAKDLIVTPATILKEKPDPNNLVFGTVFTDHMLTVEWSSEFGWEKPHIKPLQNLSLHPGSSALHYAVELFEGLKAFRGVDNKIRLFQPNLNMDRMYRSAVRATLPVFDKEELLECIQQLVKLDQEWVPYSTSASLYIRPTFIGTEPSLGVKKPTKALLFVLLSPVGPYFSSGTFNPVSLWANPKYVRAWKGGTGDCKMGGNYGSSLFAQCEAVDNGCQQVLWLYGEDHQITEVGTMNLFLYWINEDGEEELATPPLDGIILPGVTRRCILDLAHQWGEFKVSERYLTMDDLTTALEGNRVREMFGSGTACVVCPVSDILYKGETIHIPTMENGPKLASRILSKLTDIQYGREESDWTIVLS
Experimental: (§1) In vitro enzyme assay: human Branched Chain Amino Acid Aminotransferase cytosolic form (hBCATc) and mitochondrial form (hBCATm) as well as rat BCAT cytosolic form were assayed at 37° C. in 25 mM phosphate buffer pH 7.8. In addition, 2 mM DTT and 12.5 mM EDTA were added to the assay mixture. A coupling enzyme assay was used to monitor the production of glutamate. The formation of NADH from NAD+at […] was followed on a 96-well plate Molecular Devices plate reader. The following components were used in this coupled assay: 4 mM ADP, 1 mM NAD+, 750 μM L-Leucine, 500 μM a-ketoglutarate, 10 μM pyridoxal phosphate, 1 unit glutamate dehydrogenase, and 1.25 μg of the appropriate BCAT enzyme. Inhibitions by compounds were assayed by adding various concentrations to this coupled assay procedure as a DMSO stock up to a 5% v/v DMSO/buffer ratio.
(§2) Enzyme Preparation: humanBCATc and ratBCATc were expressed in BL21(DE3) cells. A growing culture of cells was induced with 1 mM IPTG at room temperature overnight. These cells were harvested by centrifugation at 10,000 g for 20 minutes. The supernatant was discarded, and the cells were stored at −80° C. until needed. The protein was purified by the following method. The cell paste was resuspended in extraction buffer (0.1 M phosphate, pH 8.0, with 0.01 M Tris-HCL and 5 mM TCEP and then lysed on a French Press at 1000 psi. The lysate was centrifuged at 10,000 g for 15 minutes, and the pellet was discarded. The supernatant was loaded onto a Hitrap Chelating column previously charged with 0.1 M NiSO4 and washed with 3 to 4 column volumes of extraction buffer. The column was then washed with 0.01 Tris, pH 7.5, 10% glycerol, 150 mM NaCl, 5 mM TCEP for two column volumes. The column was then further washed with two column volumes of 0.1 M phosphate, pH 6.0, 0.01 M Tris, 10% glycerol, and 750 mM NaCl. Finally, the column was washed with two column volumes of the same buffer plus 50 mM imidazole. The BCAT enzyme was then eluted with the same buffer but with 350 mM imidazole. The eluant was then dialyzed overnight against 10 mM phosphate buffer pH 8.0, 10% glycerol, and 5 mM TCEP. The dialyzed protein was then loaded onto a Q-sepharose column and eluted using a salt gradient. Active fractions were collected and further purified on a Superose-12 column to yield pure BCAT protein.

[2] = target: T2, rat BCAT cytosolic form (rrBCATc) (Rattus norvegicus, UniProt P54690); experiment: In vitro coupled enzyme assay, rat BCAT cytosolic form; assay type: biochemical; details: inhibition of recombinant rat BCATc; coupled glutamate dehydrogenase/NADH assay, 37° C., pH 7.8
T2 construct: inferred from purification on a Ni-charged chelating column with imidazole elution; made in house; host or cells: E. coli BL21(DE3)
T2 sequence (P54690 1-411): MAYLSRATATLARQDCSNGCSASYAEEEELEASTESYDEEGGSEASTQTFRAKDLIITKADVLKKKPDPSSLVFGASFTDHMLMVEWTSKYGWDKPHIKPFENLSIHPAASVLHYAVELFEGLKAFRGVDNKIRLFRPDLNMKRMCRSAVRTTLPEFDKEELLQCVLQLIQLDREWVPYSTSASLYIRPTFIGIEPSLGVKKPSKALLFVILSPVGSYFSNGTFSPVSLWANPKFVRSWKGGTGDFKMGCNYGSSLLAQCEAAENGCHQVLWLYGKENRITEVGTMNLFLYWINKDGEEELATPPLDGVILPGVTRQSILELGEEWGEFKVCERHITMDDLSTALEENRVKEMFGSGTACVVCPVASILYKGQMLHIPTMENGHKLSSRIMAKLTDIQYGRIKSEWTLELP
Experimental: as §1, §2

| Compound | IC50 [1] | IC50 [2] | melting point |
| --- | --- | --- | --- |
| CC(C)(C)c1ccc(C(=O)NNS(=O)(=O)c2ccccc2)cc1 [Example 24, 4-(1,1-Dimethylethyl)-benzoic acid, 2-(phenylsulfonyl)hydrazide] | 57 µM | 1.2 µM | 197 to 199 °C |
| CC(C)(C)CCc1ccc(C(=O)NNS(=O)(=O)c2ccccc2)cc1 [Example 38, 4-(3,3-Dimethyl-1-butyl)-benzoic acid, 2-(phenylsulfonyl)hydrazide] | 9.5 µM | 0.25 µM | 168 to 169 °C |
| CC(C)(C)C#Cc1ccc(C(=O)NNS(=O)(=O)c2ccccc2)cc1 [Example 37, 4-(3,3-Dimethyl-1-butynyl)benzoic acid, 2-(phenylsulfonyl)hydrazide] | 34.8 µM | 4.3 µM | 160 °C (dec.) |
| O=C(NNS(=O)(=O)c1ccccc1)c1ccc(C#CC2(O)CCCCC2)cc1 [Example 35] | 43.5 µM | 2.2 µM | 96 to 97 °C |
| O=C(NNS(=O)(=O)c1ccccc1)c1ccc(CCC2(O)CCCCC2)cc1 [Example 36] | 15.4 µM | 0.25 µM | 158 to 159 °C |
| O=C(NNS(=O)(=O)c1ccccc1)c1ccc(-c2ccccc2)cc1 [Example 25, [1,1′-Biphenyl]-4-carboxylic acid, 2-(phenylsulfonyl)hydrazide] | 16 µM | 1.5 µM | 216 to 219 °C |

Now from value to molecule:

| IC50 [1] | IC50 [2] | melting point | Compound |
| --- | --- | --- | --- |
| 27 µM | 4.4 µM | 214 to 215 °C | O=C(NNS(=O)(=O)c1ccccc1)c1ccc(NCc2ccccc2)cc1 [Example 16, 4-Benzylamino-benzoic acid 2-(phenylsulfonyl)hydrazide] |
| 27.6 µM | 1.3 µM | 175 °C (dec.) | O=C(NNS(=O)(=O)c1ccccc1)c1ccc(C#Cc2ccccc2)cc1 [Example 32, 4-Phenacetylenyl-benzoic acid, 2-(phenylsulfonyl)hydrazide] |
| 14.3 µM | 0.25 µM | 158 to 159 °C | O=C(NNS(=O)(=O)c1ccccc1)c1ccc(CCc2ccccc2)cc1 [Example 33, Phenethyl-benzoic acid, 2-(phenylsulfonyl)hydrazide] |
